# In article PMC5799093, “Proceedings of Réanimation 2018, the French Intensive Care Society International Congress” (Annals of Intensive Care, 2018):
# Like-named read-outs stand apart in the source and are kept apart here.
# Key:
# [1] = comparison value; cited from earlier work
# [2] = Acute amitriptylin and clomipramine poisonings in the ICU, clinical features and pharmacokinetics
# [3] = Amikacin peak serum concentration (Cmax) after loading dose in patients on ECMO; type: in vivo, adult patients; conditions: IV loading dose 25 mg kg total body weight; Cmax 30 min after end of infusion; VA- or VV-ECMO; n = 106
# [4] = tested on: carbapenemase-producing Enterobacteriaceae; assay: Antibiotic susceptibility of Enterobacteriaceae with decreased susceptibility to carbapenems; type: cell-based; conditions: CA-SFM 2015
# [5] = tested on: Pseudomonas aeruginosa; assay: Disk diffusion susceptibility of P. aeruginosa isolated from burned patients (P-48); type: cell-based; conditions: 485 strains from burned patients 2012-2015, disk diffusion, FSM breakpoints
# [6] = Amikacin peak serum concentration (Cmax) in ICU patients with septic shock/severe sepsis (P-52); type: in vivo, human
# [7] = critically ill patients, 25 mg kg dose; ref 1 (de Montmollin et al. 2014); cited from earlier work
# Method: Introduction: Amikacin infusion requires to target a peak serum concentration (Cmax) 8–10 times the minimal inhibitory concentration, corresponding to a Cmax at 60–80 mg L^−1 for the least susceptible bacteria. […] Membrane sequestration, alteration of the volume of distribution and lack of data in this population make drugs pharmacokinetics (PK) on ECMO challenging. Our study aimed to assess the prevalence of insufficient Amikacin Cmax in critically ill patients on ECMO and to identify re ...
# [8] = design: method as in Taccone in 2010; conditions: dosages of 25 mg kg; ref Taccone in 2010; cited from earlier work
# [9] = tested on: Pseudomonas; conditions: January 2010 - June 2014
# [10] = tested on: Acinetobacter baumannii; conditions: January 2010 - June 2014
# [11] = human, in vivo
# Method: Patients and methods: This study was conducted in burn center in Tunis. Patients with documented and or suspected infections were included. Were excluded pregnant women and patients with renal failure. […] For the 2nd, 3rd, 4th and 5th day, blood samples were taken before the infusion (T0), at the end (T1) and 30 min after the end of it (T2).
# [12] = tested on: Escherichia-coli; assay: Resistance in nosocomial urinary tract infection: Escherichia-coli (P-219); conditions: January 2010 - June 2014
# [13] = target: glucocorticoid receptors (Homo sapiens, UniProt P04150)
# [14] = not given; remark: listed apart in the source
# [15] = tested on: TREM-1 signalling pathway; conditions: in vivo; cited from earlier work
# Description: Introduction: MOTREM is the clinically formulated synthetic peptide (LR12) that is currently being developed for the treatment of sepsis and for the prevention of sequelae after acute myocardial infarction. […] Its pharmacological action occurs via the Triggering Receptor Expressed on Myeloid Cells-1 (TREM-1) signalling pathway.
# [16] = clinical; conditions: male, human, in vivo, iv
# Method: (§1) Patients and methods: Twenty-seven healthy male volunteers have been included in this clinical trial. The product was administered by continuous intravenous infusion (CIV). A single ascending dose design with 8 dose levels was used. […] All volunteers were carefully monitored. Before escalation to the next dose level, safety and PK data of the previous dose level were reviewed by a safety review committee.
# [17] = MOTREM phase I first-in-human single ascending dose trial, safety and pharmacokinetics; conditions: in vivo
# Method: as §1
# [18] = Piperacillin population pharmacokinetics in critically ill children; type: in vivo; conditions: median (range), one compartment model, n = 50 children
# Description: Pharmacokinetics were described using the non-linear mixed effect modelling software MONOLIX.
# [19] = Residual serum concentrations of piperacillin and amoxicillin and neurological disorders (HPLC MS); type: in vivo, critically ill patients
# Method: Patients and methods: This study was carried out retrospectively during the period 01.01.2015 to 08.02.2017, in patients hospitalized in the medical ICU-CHU Rouen with PTM.
# [20] = tested on: Stenotrophomonas maltophilia VAP; assay: Risk factors for Stenotrophomonas maltophilia VAP, matched analysis; type: in vivo, patients; conditions: exposure during the week before VAP; 93 cases, 380 controls
# Method: Patients and methods: We conducted a retrospective analysis of prospectively collected data in a multicenter database in France. VAP was determined as microbiologically documented pneumonia occurring after at least two days of mechanical ventilation. All patients admitted from 2000 to 2015 presenting at least one episode of VAP were included. SM-VAP were compared with VAP due to other micro-organisms (VAP-other). To assess risk factors and day-30 (D30) mortality, SM-VAP were matched (1 − n) with VAP-other based on center, time from ICU admission to VAP occurrence, and SAPS II score.
# [21] = Major arrhythmia recurrence after resuscitated ischemic VF/VT, PROCAT registry (P-86); type: in vivo, human; conditions: multivariate analysis, 256 patients, 104 treated; p = 0.870
# Description: Patients and methods: The PROCAT registry captures all data from patients admitted in a tertiary hospital center after a resuscitated cardiac arrest (CA). We selected patients with an initial VF VT caused by an acute coronary syndrome (ACS) and who were successfully treated with early percutaneous coronary intervention (PCI) on admission. The primary endpoint was the recurrence of major arrhythmia between ICU admission and ICU discharge. All arrhythmias resulting in CA recurrence and or severe arterial hypotension requiring infusion of vasopressors were classified as major arrhythmias. Multivariate logistic regression identified factors associated with the occurrence of major arrhythmias.
# [22] = tested on: acutely poisoned ventilated patients; conditions: human, in vivo
# [23] = Caffeine in bronchiolitis related apnea, PICU retrospective study (P-118); conditions: 49 treated of 54 infants; loading 20 mg kg, 5 mg kg day maintenance
# [24] = 2 g day intermittent infusion, trough concentrations, theoretical target MIC 2 mg/L, 21 patients, 63 samples
# [25] = Eight of 49 patients
# [26] = tested on: eclampsia; assay: Eclampsia survey, recurrence under magnesium sulfate prevention; type: in vivo, patients; conditions: 83 women
# Description: Patients and methods: We conducted a retrospective survey in a third level Tunisian university teaching hospital from January 2004 to December 2016. We included all patients with the diagnosis of eclampsia.
# [27] = tested on: GABA-A receptors; assay: PET imaging with 11C-flumazenil, interaction of tramadol with GABA-A receptors; type: binding; conditions: 11C-flumazenil fixation in the rat brain
# [28] = CVVHF filter lifespan, LMWH versus regional citrate anticoagulation (P-97); design: species or system human; conditions: in vivo
# Description: Patients and methods: A monocentric retrospective study was led from January to October 2016. All the CVVHF sessions during this period were included. Prismaflex© monitors (Hospal) were used. Practioners were free to choose between citrate or LMWH defining 2 groups. We aimed a post filter ionized calcemia between 0.25 to 0.5 mmol/L in citrate group + and a post filter anti Xa activity between 0.2 to 0.5 UI/mL in LMWH.
# [29] = tested on: anti-Xa activity; assay: Population pharmacokinetics of enoxaparin (anti-Xa activity) in pediatric liver transplantation (P-170); type: in vivo, human (children)
# Method: Patients and methods: Clinical, biological and kinetic data were retrospectively collected in a single Pediatric Intensive Care Unit center from January 2013 to July 2015. We described an enoxaparin PK model in 22 children the first week following the LT. Anti-Xa activity time-courses were analyzed using a non linear mixed effects approach with Monolix version 2016R.
# [30] = Heparin-induced thrombocytopenia in ICU (anti-PF4 antibody test); type: in vivo; conditions: patients hospitalized in ICU
# Method: Patients and methods: This was a retrospective, monocentric, descriptive and evaluative study conducted in our intensive care unit (ICU) over a period of 4 years 6 months. An anti-PF4 antibody test was performed in patients who developed thrombocytopenia or a 30% drop in their initial platelet kinetics and the clinical picture.
# Chain of glucocorticoid receptors (P04150 whole entry): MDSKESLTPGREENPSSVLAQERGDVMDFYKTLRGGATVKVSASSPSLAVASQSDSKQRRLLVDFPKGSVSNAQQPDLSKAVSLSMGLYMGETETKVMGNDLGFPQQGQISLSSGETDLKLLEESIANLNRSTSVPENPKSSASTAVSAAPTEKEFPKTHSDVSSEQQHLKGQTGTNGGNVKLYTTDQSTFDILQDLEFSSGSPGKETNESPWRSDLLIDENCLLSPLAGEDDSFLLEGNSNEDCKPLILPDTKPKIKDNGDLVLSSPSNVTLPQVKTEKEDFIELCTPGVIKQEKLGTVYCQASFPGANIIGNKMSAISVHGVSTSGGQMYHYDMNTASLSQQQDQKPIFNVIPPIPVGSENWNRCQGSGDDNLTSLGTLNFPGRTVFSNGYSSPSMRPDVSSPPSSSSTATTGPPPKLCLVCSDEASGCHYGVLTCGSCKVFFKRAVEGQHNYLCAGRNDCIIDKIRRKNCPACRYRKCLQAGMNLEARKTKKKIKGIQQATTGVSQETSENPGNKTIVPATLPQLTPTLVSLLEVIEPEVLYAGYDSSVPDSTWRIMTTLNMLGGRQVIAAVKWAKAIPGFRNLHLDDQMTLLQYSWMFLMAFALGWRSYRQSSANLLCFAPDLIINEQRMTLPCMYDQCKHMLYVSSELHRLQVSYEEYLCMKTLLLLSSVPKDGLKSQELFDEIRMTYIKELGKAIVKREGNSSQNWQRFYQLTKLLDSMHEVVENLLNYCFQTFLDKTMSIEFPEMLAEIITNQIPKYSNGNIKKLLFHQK
molecule,measurement,setting,value
"CN(C)CCC=C1c2ccccc2CCc2ccccc21 [AMI, Amitriptylin]",elimination half-life in pharmacological conditions,[1],24 h
same,plasma concentration,"[2]; median, AMI [0.4 + 1.4], dose 1.5 g, CLO [0.5 + 1.4], dose 3.0 g",700 ng/mL
same,elimination half-life in overdose,[2]; non-compartmental analysis,43 h
same,"coma depth, AMI vs CLO",[2]; p < 0.0001,significantly deeper coma
same,"seizures, AMI vs CLO",[2]; p = 0.02,fewer seizures than CLO
NCC[C@H](O)C(=O)N[C@@H]1C[C@H](N)[C@@H](O[C@H]2O[C@H](CN)[C@@H](O)[C@H](O)[C@H]2O)[C@H](O)[C@H]1O[C@H]1O[C@H](CO)[C@@H](O)[C@H](N)[C@H]1O [Amikacin],Cmax < 60 mg L^−1 (proportion of patients),[3],39%
same,resistant rate,[4],57%
same,strains resistant,[5],62%
same,median Cmax,"[6]; median dosage 22.5 mg kg, initial injection, 191 patients",72.1 mg·L
same,patients with Cmax greater than 80 mg l,[6]; of 191 patients,53 patients
same,patients with Cmax less than 64 mg l,[6]; of 191 patients,77 patients
same,patients not attaining target Cmax 60–80 mg L^−1,[7],33%
same,peaks above 64 mg l,[8],70%
same,resistant,[9],44%
same,resistant,[10],85%
same,cases reaching a peak between 60 and 80 μg/ml,"mean dose 26 mg kg day, 1 h infusion, 18 burned patients",55%
same,total volume of distribution,range (0.28–1.32),0.55 L·kg
same,half-life time (t1 2),range [1.42–8 h],4.70 h
same,amikacin clearance,[11],6.4 L·h
same,correlation between Cpeak at day 1 and Cpeak at day 5 (r),[11],0.45
same,resistance,[12],without resistance
C[C@H]1C[C@H]2[C@@H]3CCC4=CC(=O)C=C[C@]4(C)[C@@]3(F)[C@@H](O)C[C@]2(C)[C@@]1(O)C(=O)CO [Betamethasone],corticoresistance (mean blanching score < 2),[13]; non-septic critically ill,56%
same,corticoresistance (mean blanching score < 2),"[13]; septic shock, 10 µl cream on 3 cm^2, read at 24 h",78%
CSCC[C@H](NC(=O)[C@H](CS)NC(=O)CNC(=O)[C@H](Cc1ccc(O)cc1)NC(=O)[C@H](CCC(=O)O)NC(=O)CNC(=O)[C@H](C)NC(=O)[C@H](CC(=O)O)NC(=O)[C@H](CCC(=O)O)NC(=O)[C@H](CCC(=O)O)NC(=O)[C@H](CCC(N)=O)NC(=O)[C@@H](N)CC(C)C)C(N)=O [MOTREM],product-related adverse events,[14]; 27 healthy male volunteers,No product-related adverse events were reported
same,effective half-life,"[14]; continuous IV infusion, healthy male volunteers",about 3 min
same,safety and tolerability,[14]; up to 5mg/kg 15-min loading dose and 6 mg kg h for 7.75 hours,safe and well tolerated up to the highest dose tested
same,GLP toxicology,[15],safe and well tolerated in GLP toxicology studies
same,clearance,[16],110 mL/min/kg
same,PK linearity,[17],linear
CCN1CCN(C(=O)N[C@@H](C(=O)N[C@@H]2C(=O)N3[C@@H]2SC(C)(C)[C@@H]3C(=O)O)c2ccccc2)C(=O)C1=O [Piperacillin],clearance,"[18]; MONOLIX, intermittent infusions",3 (0.71–10) L h^−1
same,volume of distribution,[18],3.8 (0.72–25.8) L
same,residual concentration associated with occurrence of neurological disorders,[19]; 80% specificity and sensitivity,greater than 40 mg L^−1
same,"residual serum concentration, patients with neurological disorders or wakefulness delays",[19]; HPLC MS,98.2 ± 16.8 mg L^−1
same,"residual serum concentration, patients without neurological disorders",[19]; HPLC MS,21.6 ± 4.0 mg L^−1
C[C@]1(Cn2ccnn2)[C@H](C(=O)O)N2C(=O)C[C@H]2S1(=O)=O [Tazobactam],"OR for SM-VAP, univariate analysis",[20],1.75 [1.04; 2.94]
CCCCc1oc2ccccc2c1C(=O)c1cc(I)c(OCCN(CC)CC)c(I)c1 [amiodarone],OR for recurrences of major arrhythmias with prophylactic AA treatment,[21],0.9 [0.3–3.1]
CN1[C@@H]2CC[C@H]1C[C@@H](OC(=O)C(CO)c1ccccc1)C2 (stereo partly drawn) [atropine],"OR, independent risk factor for delirium",[22],2.333
Cn1c(=O)c2c(ncn2C)n(C)c1=O [caffeine],potential caffeine adverse effects between groups or pre and post-caffeine administration,[23],no difference
CO/N=C(\C(=O)N[C@@H]1C(=O)N2C(C(=O)O)=C(CSc3nc(=O)c(=O)[nH]n3C)CS[C@H]12)c1csc(N)n1 [ceftriaxone],rate of PK/PD target non-attainment,[24],62%
O=C(O)c1cn(C2CC2)c2cc(N3CCNCC3)c(F)cc2c1=O [ciprofloxacin],"OR for SM-VAP, univariate analysis",[20],1.77 [0.92; 3.39]
C[C@H]1O[C@@H](O[C@H]2[C@@H](O)C[C@H](O[C@H]3[C@@H](O)C[C@H](O[C@H]4CC[C@@]5(C)[C@H](CC[C@@H]6[C@@H]5C[C@@H](O)[C@]5(C)[C@@H](C7=CC(=O)OC7)CC[C@]65O)C4)O[C@@H]3C)O[C@@H]2C)C[C@H](O)[C@@H]1O [digoxin],patients who died in the ICU,[25],16%
O=S(=O)([O-])[O-].[Mg+2] [magnesium sulfate],recurrence of eclampsia despite prevention,[26],6%
COc1cccc(C2(O)CCCCC2CN(C)C)c1 (stereo not drawn) [tramadol],interaction with GABA-A receptors,[27],molecular interaction between tramadol and γ-aminobutyric acid (GABA)-A receptors not related to a competitive mechanism
enoxaparin,"serious side effect, especially hemorrhage",[28],No serious side effect
same,typical clearance (CLTYP),"[29]; 22 children, first week after LT, one-compartment, scaled to 70 kg, Monolix",1.26 L/h
same,typical volume of distribution (VTYP),"[29]; 22 children, scaled to 70 kg",16.9 L
same,children who never attained the target range of anti-Xa activity 0.2 to 0.4 IU mL,"[29]; standard 50 IU kg 12 h, 7 children",32%
heparin,incidence of HIT,[30],1.71%
